Reference: patent publication US10555923B2, “Method for treating paroxysmal nocturnal hemoglobinuria” (ENZYCHEM LIFESCIENCES CORPORATION, priority 2015, dated 2020)

Key:
[1] = Colony forming units (CFUs) in spleen assay in heavily irradiated mice; format: in vivo; conditions: 50 mg/kg/d i.p. or p.o.
Method: In order to determine the in vivo effect of PLAG on the recovery of hematopoiesis, a CFUs assay is performed in heavily irradiated mice.

C3 [2] = assay: C3 in culture supernatant of HepG2 cells (ELISA); format: cell-based, human; conditions: PLAG 1 to 100 μg/ml or S6I 10 and 100 μg/ml, IL-4 and TNF-α 1 hr, incubated 18 hr
Method: (§1) The incubated HepG2 cell lines are treated with PLAG (1˜100 μg/ml), followed by IL-4 and TNF-α, reacted for 1 hour, incubated for 18 hours at 37° C. and the supernatant is isolated. Quantitation of the amount of C3 in the cellular culture medium (supernatant) from HepG2 cells is performed by ELISA using a commercially available monoclonal antibody (mAb, R&D Systems) and the manufacture's protocol; the results are presented in FIGS. 3A-3C. C3 is expressed spontaneously under in vitro culture conditions using 10% FCS added to HepG2 cells and incubated for 12 hr. The cells are treated with PLAG from 1 to 100 μg/ml (FIG. 3A, FIG. 3B) or 10 and 100 μg/ml of S6I (FIG. 3C), reacted with IL-4 and TNF-α for 1 hr and then incubated for 18 hr at 37° C. Cellular viability is confirmed using the WST-1 assay (FIG. 3A).

complement 3 = assay: Complement 3 activation by chemotherapeutic agents in mouse model; format: in vivo; conditions: mice; PLAG 50 mg/kg daily 3 weeks with Gemcitabine, Cyclosphosphamide or Tamoxifen
Method: The effect of PLAG for treatment of chemotherapy-induced thrombocytopenia (CIT) is evaluated in an animal model. Anti-cancer agents (Gemcitabine 50 mg/kg, Cyclosphosphamide 100 mg/kg, or Tamoxifen 50 mg/kg) are dosed daily for 3 weeks; PLAG is also administered at 50 mg/kg daily for 3 weeks.
It is believed that the leukopenia and thrombocytopenia of these agents and other chemotherapeutic agents may be due at least in part to a specific complement-mediated toxicity. This is seen in FIG. 5.

STAT6 [3] = assay: Reporter (luciferase) assay for STAT6 transcriptional activity in HepG2 cells; format: cell-based, human; conditions: 10 ng IL-4, PLAG 0.01-10 μg/ml, 12 hour incubation
Method: (§2) By using STAT6 inhibitor (S6I), it is confirmed that the reduction of complement 3 in HepG2 cells (human hepatocyte cell line) is regulated by STAT6. […] It is also confirmed that PLAG has selective efficacy on STAT6 over STAT1. FIG. 1 presents graphs showing STAT1 and STAT6 transcriptional activity in the PLAG treated HepG2 cells. NC refers to the unstimulated control cell. For the STAT1 assay, gene transfected HepG2 (human hepatocyte cell line) is treated with 10 ng of IFN-γ and serially diluted PLAG is added (0.01 μg/ml, 0.1 μg/ml, 1 μg/ml, and 10 μg/ml as shown) to see its effect on gene expression in the stimulated cell. For the STAT6 assay, gene transfected HepG2 cells are treated with 10 ng of IL-4 and again serially diluted PLAG is added (0.01 μg/ml, 0.1 μg/ml, 1 μg/ml, and 10 μg/ml as shown) to see its effect on gene expression in the stimulated cell. The assay is carried out following a 12 hour incubation of treated cells.

[4] = system: hematopoietic stem cells and megakaryocytes; conditions: reported in WO 99/26640; cited from earlier work
HepG2 cells = assay: WST-1 cell viability assay in HepG2 cells; format: cell-based; conditions: PLAG 1 to 100 μg/ml
Method: as §1

STAT6 [5] = molecular target: T1, STAT6 (Homo sapiens, UniProt P42226); assay: Dephosphorylation of STAT6 in IL-4 stimulated cell lysates (Western blot); format: cell-based; conditions: U937, Jurkat and A549 cells; PLAG 0.01 to 10 μg/ml; 10 ng/ml IL-4; 15 min after stimulation
T1 construct: using anti-phosphorylated STAT6 in U937, A549, and Jurkat cell lysates treated with PLAG; endogenous in cells; host or cells: U937, A549, Jurkat
T1 sequence (P42226 1-847): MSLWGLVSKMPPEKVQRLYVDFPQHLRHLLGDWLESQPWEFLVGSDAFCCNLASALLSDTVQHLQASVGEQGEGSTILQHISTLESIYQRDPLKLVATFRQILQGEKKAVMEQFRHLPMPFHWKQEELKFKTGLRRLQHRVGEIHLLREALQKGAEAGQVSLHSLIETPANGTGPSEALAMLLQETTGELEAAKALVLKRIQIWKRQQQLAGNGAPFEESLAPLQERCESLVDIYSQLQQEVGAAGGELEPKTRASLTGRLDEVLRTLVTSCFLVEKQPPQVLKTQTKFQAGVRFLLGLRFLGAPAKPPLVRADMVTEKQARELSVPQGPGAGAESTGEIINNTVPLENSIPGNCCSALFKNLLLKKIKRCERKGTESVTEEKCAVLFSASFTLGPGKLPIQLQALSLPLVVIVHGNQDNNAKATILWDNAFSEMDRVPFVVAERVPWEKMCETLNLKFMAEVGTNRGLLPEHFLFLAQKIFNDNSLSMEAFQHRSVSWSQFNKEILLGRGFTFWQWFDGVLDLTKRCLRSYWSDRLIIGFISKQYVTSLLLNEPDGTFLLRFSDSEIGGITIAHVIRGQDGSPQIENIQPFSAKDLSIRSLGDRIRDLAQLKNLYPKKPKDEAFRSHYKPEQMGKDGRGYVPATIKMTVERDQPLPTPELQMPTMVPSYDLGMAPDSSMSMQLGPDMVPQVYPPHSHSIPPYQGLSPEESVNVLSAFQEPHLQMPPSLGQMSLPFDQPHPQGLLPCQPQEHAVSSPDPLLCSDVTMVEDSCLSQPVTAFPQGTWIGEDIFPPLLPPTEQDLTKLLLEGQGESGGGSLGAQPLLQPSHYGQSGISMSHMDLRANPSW
Method: Dephosphorylation of STAT6 is examined using anti-phosphorylated STAT6 in U937, A549, and Jurkat cell lysates treated with PLAG at a concentration from 0.01 to 10 μg/ml. Phosphorylation of STAT6 is induced by treatment with 10 ng/ml of IL-4. Dephosphorylation of STAT1 is examined in the U937 cell lysate treated with PLAG (0.01 to 10 μg/ml). Phosphorylation of STAT1 is induced by 10 ng of IFN-γ treatment. Dephosphorylation of STAT1 and STAT6 is examined at 15 min after stimulation with IFN-γ and IL-4 respectively, in the PLAG pretreated cells. […] The transcriptional activity of STAT6 is decreased by the dephosphorylation of STAT6. […] No effect of PLAG on STAT1 phosphorylation is observed.

C3 [6] = assay: C3 inhibition in HMC-1 cells (ELISA); format: cell-based, human; conditions: PLAG 1, 10 and 100 μg/mL for 2 hours, activated 72 hours with 10% FBS
Method: In a separate experiment, human mast cells (HMC-1, 1×10^5 cell/ml) are treated with PLAG of various concentrations (1, 10 and 100 μg/mL) for 2 hours. The cells are activated for 72 hours with 10% FBS (Fetal bovine serum) containing IMDM. The decrease of C3 is confirmed by ELISA analysis of the expressed protein.

C3 [7] = assay: C3 mRNA expression in HepG2 cell line (RT-PCR); format: cell-based, human
Method: A liver cell line, HepG2 (American Type Culture Collection, ATCC, Rockville, Md.), is incubated and maintained at 37° C., 5% CO2 humid atmosphere in DMEM medium. When HepG2 cells, which are known to produce complement in culture, are treated with PLAG, the activity of complement is reduced effectively, as confirmed by RT-PCR of mRNA. In the RT-PCR, 5×10^5 HepG2 cells/ml are distributed into 12 well plates and induced C3 for 12 hours with 10% FCS. Then PLAG is added and further cultured for 2 hours. Cells are harvested and mRNA is isolated and RT-PCR is carried out with specific primers for C3; GAPDH is used as an internal control.

C3 [8] = assay: In vitro inhibition of C3 expression in HMC-1 cells (IL-4/TNF-α induced, RT-PCR); format: cell-based, human; conditions: IL-4 (5 ng) and TNF-α (10 ng), PLAG 0.1 and 1 μg/mL
Method: A blood cell line, HMC-1 (human mast cell, American Type Culture Collection, ATCC, Rockville, Md.) is incubated and maintained at 37° C. under 5% CO2 humid conditions. The medium is IMDM (Life Technologies, Karlsruhe, Germany) containing 10% Fetal Calf Serum (FCS, HyClone, Logan, Utah), 2 mM […], 100 μg/ml penicillin, 100 μg/ml streptomycin (Life Technologies). The cultured HMC-1 cells (1×10^6 cell/ml) are pretreated with 0.1 and 1 μg/mL concentrations of PLAG, followed by treatment with IL-4 (5 ng) and/or TNF-α (10 ng) to induce cellular activities.
The expressed C3 and its mRNA level changes are observed by using RT-PCR (Reverse Transcriptase Polymerase Chain Reaction). The RT-PCR is carried out as follows: the total RNA is separated by the standard protocol and cDNA is synthesized using AccuScript High Fidelity 1st Strand cDNA Synthesis Kit (Stratagene). Two-step RT-PCR reaction is conducted using Oligo-dT primer and reverse transcriptase, pair of primers and Taq polymerase (Takara, Shiga, Japan). […] The product of PCR is separated using 1.5% agarose gel, dyed with ethidium bromide (EtBr), and visualized with Gel Doc 2000 UV trans-illuminator (Bio-Rad Laboratories, Hercules, Calif., USA), and the experimental data is analyzed using Quantity One software (Bio-Rad Laboratories).

STAT1 = assay: Reporter assay for STAT1 transcriptional activity in HepG2 cells; format: cell-based, human; conditions: 10 ng IFN-γ, PLAG 0.01-10 μg/ml, 12 hour incubation
Method: as §2

SMILES	number of splenic nodules, primitive progenitor cells and megakaryocytes [1]	expression of C3 (amount in supernatant, ELISA) (C3 [2])	blockage of chemotherapy-induced complement 3 activation (complement 3)	STAT6 transcriptional activity (expression) (STAT6 [3])	growth-stimulating activities of hematopoietic stem cells and megakaryocytes [4]	cellular propagation and death (WST-1 viability) (HepG2 cells)	IL-4 treatment induced STAT6 phosphorylation (STAT6 [5])	decrease of C3 (ELISA of expressed protein) (C3 [6])	inhibition of C3 expression (mRNA, RT-PCR) (C3 [7]; PLAG 1 μg/ml, 2 hours)	inhibition of C3 expression (mRNA, RT-PCR) (C3 [7]; PLAG 10 μg/ml, 2 hours)	expression of C3 (C3 [8])	STAT1 transcriptional activity (expression) (STAT1)	inhibition of C3 expression (mRNA, RT-PCR) (C3 [7]; S6I 10 and 100 μg/ml, compared with PLAG 1 and 10 μg/ml)
CCCCC/C=C\C/C=C\CCCCCCCC(=O)OC(COC(C)=O)COC(=O)CCCCCCCCCCCCCCC (racemic) [PLAG, 1-palmitoyl-2-linoleoyl-3-acetylglycerol]	marked increase	decreased dose-dependently	largely blocked	significant, dose-dependent effect	have growth-stimulating activities	does not affect the cellular propagation and death	inhibited with increasing PLAG concentrations	proportional to the concentration of PLAG	somewhat	entirely	suppressed by PLAG on a concentration dependent basis	no effect	
NC(=O)c1cnc(NCCc2ccc(O)c(Cl)c2)nc1NCc1ccccc1 [S6I, reference compound]											suppresses expression of C3		comparable
